# Experiments:
# OPM2 = experiment: Cell proliferation assay (CellTitre-Glo, 120 h); conditions: Homo sapiens, OPM-2, 120 h, read-out: OPM-2 120 h IC50
# Experimental: (§2) All cell lines were kept in log phase, and cell density and viability were monitored by trypan blue exclusion using the Vi-cell XR cell viability analyzer (Beckman Coulter, Brea, CA).
# (§3) A 10-point dose response starting at 10 μM with a 1:3 dilution was printed in duplicate by acoustic dispense using the EDC ATS-100 platform. Alternatively, the 10-point dose response starting at 10 μM with a 1:10 dilution, or starting at 100 nM with a 1:3 dilutions were used.
# (§4) Hematological cell lines were dispensed into compound plates by a Multidrop Combi Reagent Dispenser (Thermo Scientific, Waltham, MA) at a concentration of 0.1×10^6 cells per mL in a 50 μL total volume. At 120 h, 25 μL per well of CTG was dispensed by a Multidrop Combi Reagent Dispenser and adenosine triphosphate (ATP) release by viable cells was measured as relative luminescence units after 30 minutes using the Envision platform.
# (§5) Proliferation was assessed using the CellTitre-Glo® assay.
# NCI-H929-1051 = experiment: Cell proliferation assay (CellTitre-Glo, 120 h); conditions: Homo sapiens, read-out: NCI-H929.1051 120 h IC50
# Experimental: as §2, §3, §4, §5
# dopamine D2S receptor = molecular target: T1, dopamine D2S receptor (Homo sapiens, UniProt P14416); experiment: Dopamine D2S receptor binding at 10 μM (transfected HEK-293 membranes); conditions: inhibition of control radioligand binding
# T1 construct: host or cells: HEK-293
# T1 sequence (P14416 1-414 isoform P14416-2): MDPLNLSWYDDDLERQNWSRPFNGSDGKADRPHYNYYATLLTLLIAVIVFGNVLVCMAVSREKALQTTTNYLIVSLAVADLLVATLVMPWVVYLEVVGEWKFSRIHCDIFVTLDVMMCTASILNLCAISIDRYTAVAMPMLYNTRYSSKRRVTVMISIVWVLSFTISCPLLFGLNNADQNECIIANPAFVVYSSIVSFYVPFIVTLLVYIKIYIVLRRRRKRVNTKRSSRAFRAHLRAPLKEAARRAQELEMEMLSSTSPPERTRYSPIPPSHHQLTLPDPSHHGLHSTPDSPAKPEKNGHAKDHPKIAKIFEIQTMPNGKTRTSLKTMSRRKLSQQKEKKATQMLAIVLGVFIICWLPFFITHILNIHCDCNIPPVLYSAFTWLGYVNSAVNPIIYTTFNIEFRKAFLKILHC
# Experimental: (§1) α1 Adrenergic and Dopamine D2 Receptors. Methods: Binding and functional assays for al adrenergic and dopamine D2 receptors were performed by Eurofins Cerep according to their methods.
# Dopamine D2 Receptor. Binding at 10 μM. The binding assay evaluated the affinity of test articles for the dopamine D2 receptor in transfected human embryonic kidney (HEK)-293 cells. For determining the binding in the D2S receptor assay, test article was incubated with 0.3 nM [^3H] methylspiperone or 1 nM [^3H] 7-hydroxy-2-N,N-dipropylaminotetralin (7-OH-DPAT). [^3H] Methylspiperone at 0.3 nM also was used as control ligand in the D2L binding assay. Cell membrane homogenates were incubated in duplicate at room temperature for 60 minutes with ligand in the absence or presence of test articles at 10 μM. After the incubation period, samples were filtered through glass fiber filters, the filters dried and then counted for radioactivity using a scintillation counter. Results are expressed as mean percent inhibition of control radioligand binding.
# [1] = Two-stage dissolution (precipitation risk) of 2 mg BIC; type: physicochemical; conditions: based on two-stage dissolution findings
# Experimental: The precipitation risk of prototype BIC formulations were studied by a two-stage method (Stage 1 under sink condition and Stage 2 under non-sink condition) for high strength (2 mg).
# A two-stage dissolution study was carried out on prototype formulations, wherein the dissolution medium for Stage 1 was 0.01N HCl. […] Based on the two-stage dissolution findings the precipitation risk is considered low for Compound 1.
# OPM2-P10 = experiment: Cell proliferation assay (CellTitre-Glo, 120 h); conditions: Homo sapiens, read-out: OPM-2.P10 120 h IC50
# Experimental: as §2, §3, §4, §5
# MM cell lines = experiment: Cell proliferation assay (CellTitre-Glo, 120 h), four lines together; conditions: Homo sapiens, read-out: antiproliferative IC50 values
# Experimental: as §2, §3, §4, §5
# NCI-H929 = experiment: Cell proliferation assay (CellTitre-Glo, 120 h); conditions: Homo sapiens, NCI-H929, 120 h, read-out: NCI-H929 120 h IC50
# Experimental: as §2, §3, §4, §5
# Water activity testing = type: physicochemical
# From the text: Water activity is a measure of how tightly bound the water is within a substance. To measure water activity, a sample is placed in a sealed vessel which is allowed to reach equilibrium. The final relative humidity (RH) in the vessel is reported as a fraction called “Aw”. Pure water has an Aw of 1.00. […] HygroLab 3 Bench Top Indicator was used to determine water activity testing. Before testing the samples, the equipment is calibrated at different relative humidity levels using RH standards (0% RH, 35% RH, and 80% RH) and at different temperatures to ensure accuracy of the probes. A known amount of sample is sealed inside the sample cell by twisting the cap in downward direction. The starting temperature is recorded before beginning the test. When the change in temperature before and after the test is not more than 0.5° C. record Aw.
# [2] = Binary drug-excipient compatibility study; conditions: binary mixture with Compound 1, open dish, 50° C./75% RH, 3 and 6 weeks vs 5° C. control
# Experimental: A binary drug-excipient compatibility study was conducted to identify suitable excipients for capsule formulation. These binary mixtures were studied in open dish and subjected to 5° C. (control) and 50° C./75% RH conditions for 3 and 6 weeks respectively. Selective samples have been tested for chemical (impurities/degradants) and racemization (loss of chiral purity).
# α1 adrenergic receptor = α1 adrenergic receptor binding at 10 μM ([3H]prazosin, cerebral cortex membranes); parameters: species or system rat; conditions: inhibition of control radioligand binding
# Experimental: as §1
# α1 Adrenergic Receptor. Binding at 10 μM. The binding assay evaluated the affinity of test article for the non-selective al adrenergic receptor in rat cerebral cortex. Membrane homogenates of cerebral cortex were incubated in duplicate for 60 minutes at room temperature with 0.25 nM [^3H]prazosin in the absence or presence of test articles at 10 μM. After the incubation period, samples were filtered through glass fiber filters, the filters dried and then counted for radioactivity using a scintillation counter. Results are expressed as mean percent inhibition of control radioligand binding.
# [3] = acidifiers evaluated; cited from earlier work
compound,measurement,setting,value
"N#Cc1ccc(N2CCN(Cc3ccc(COc4cccc5c4CN([C@H]4CCC(=O)NC4=O)C5=O)cc3)CC2)c(F)c1 [Compound 1, (S)-4-(4-(4-(((2-(2,6-dioxopiperidin-3-yl)-1-oxoisoindolin-4-yl)oxy)methyl)benzyl)piperazin-1-yl)-3-fluorobenzonitrile]",IC50,OPM2,0.07 nM
same,IC50,NCI-H929-1051,1 nM
same,Dopamine D2S % Inh. (@10 μM),dopamine D2S receptor,55/52
same,precipitation risk,[1],low
same,IC50,OPM2-P10,4.3 nM
same,IC50,MM cell lines,0.07 to 4.3 nM
same,IC50,NCI-H929,0.07 nM
"N#Cc1ccc(N2CCN(Cc3ccc(COc4cccc5c4CN([C@H]4CCC(=O)NC4=O)C5=O)cc3)CC2)c(F)c1 [Form K of Compound 1, (S)-4-(4-(4-(((2-(2,6-dioxopiperidin-3-yl)-1-oxoisoindolin-4-yl)oxy)methyl)benzyl)piperazin-1-yl)-3-fluorobenzonitrile]",RH at which Form K converts to an anhydrous form,Water activity testing,< 20%
OC[C@@H](O)[C@@H](O)[C@H](O)[C@H](O)CO [Mannitol],"compatibility of excipient with the drug substance (chemical degradation, chiral purity)",[2],"compatible, with some hydrolytic chemical degradation"
"CCCCCCCCCCCCOS(=O)(=O)[O-].[Na+] [sodium lauryl sulfate (SLS), sodium lauryl sulfate]","compatibility of excipient with the drug substance (chemical degradation, chiral purity)",[2],loss of chiral purity and increase in chemical degradation chiefly by hydrolysis
"O=C1CCC(N2Cc3c(OCc4ccc(CN5CCN(c6ccc(F)cc6F)CC5)cc4)cccc3C2=O)C(=O)N1 (racemic) [Compound A, 3-(4-((4-((4-(2,4-difluorophenyl)piperazin-1-yl)methyl)benzyl)oxy)-1-oxoisoindolin-2-yl)piperidine-2,6-dione]",Adrenergic α1 % Inh. (@10 μM),α1 adrenergic receptor,102%
CCCCCCCCCCCCCCCCCC(=O)O [Stearic Acid],"compatibility of excipient with the drug substance (chemical degradation, chiral purity)",[2],chemically compatible
OC[C@H]1O[C@@H](O[C@H]2[C@H](O)[C@@H](O)C(O)O[C@@H]2CO)[C@H](O)[C@@H](O)[C@H]1O (stereo partly shown) [Lactose],"compatibility of excipient with the drug substance (chemical degradation, chiral purity)",[2],compatible with little decrease in chiral purity
O=C(O)/C=C/C(=O)O [fumaric acid],"compatibility of excipient with the drug substance (chemical degradation, chiral purity)",[2],more compatible acidifier
O=C(O)CCC(=O)O [succinic acid],pKa,[3],4.18
same,"compatibility of excipient with the drug substance (chemical degradation, chiral purity)",[2],chemically incompatible
